What all share (assay type): functional
Assay [1] deals with T1, Sentrin-specific protease 6 (Homo sapiens, UniProt Q9GZR1).
T1 sequence (Q9GZR1 whole entry): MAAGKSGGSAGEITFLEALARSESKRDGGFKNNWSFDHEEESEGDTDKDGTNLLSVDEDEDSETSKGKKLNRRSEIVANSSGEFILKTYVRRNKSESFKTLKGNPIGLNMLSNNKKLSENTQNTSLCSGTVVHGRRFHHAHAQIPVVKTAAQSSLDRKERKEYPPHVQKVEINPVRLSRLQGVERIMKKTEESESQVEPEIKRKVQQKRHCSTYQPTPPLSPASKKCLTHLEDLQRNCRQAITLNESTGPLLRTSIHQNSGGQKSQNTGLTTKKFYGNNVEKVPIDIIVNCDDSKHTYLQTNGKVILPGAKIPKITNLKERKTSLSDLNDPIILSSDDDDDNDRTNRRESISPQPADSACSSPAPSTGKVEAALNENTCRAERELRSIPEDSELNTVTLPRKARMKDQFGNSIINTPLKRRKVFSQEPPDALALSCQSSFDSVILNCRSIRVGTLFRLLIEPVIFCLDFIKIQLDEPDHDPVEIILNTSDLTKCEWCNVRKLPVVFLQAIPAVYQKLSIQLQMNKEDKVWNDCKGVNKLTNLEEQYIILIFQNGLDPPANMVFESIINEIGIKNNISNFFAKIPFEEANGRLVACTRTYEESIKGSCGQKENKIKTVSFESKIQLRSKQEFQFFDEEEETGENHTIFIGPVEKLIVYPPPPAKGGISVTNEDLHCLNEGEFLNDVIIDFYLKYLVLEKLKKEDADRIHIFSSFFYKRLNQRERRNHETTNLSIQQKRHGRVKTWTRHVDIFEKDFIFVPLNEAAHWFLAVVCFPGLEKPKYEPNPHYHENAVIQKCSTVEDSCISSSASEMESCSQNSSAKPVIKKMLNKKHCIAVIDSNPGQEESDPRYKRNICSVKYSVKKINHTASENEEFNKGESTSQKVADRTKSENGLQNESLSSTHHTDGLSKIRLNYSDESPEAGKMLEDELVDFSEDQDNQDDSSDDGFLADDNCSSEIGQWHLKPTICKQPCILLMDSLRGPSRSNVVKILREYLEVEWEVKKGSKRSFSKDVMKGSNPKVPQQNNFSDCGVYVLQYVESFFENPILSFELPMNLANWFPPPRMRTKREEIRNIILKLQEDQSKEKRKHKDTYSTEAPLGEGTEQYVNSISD

For assay [2], the target named is T2, Short transient receptor potential channel 4 (Mus musculus, UniProt Q9QUQ5).
T2 sequence (Q9QUQ5 whole entry): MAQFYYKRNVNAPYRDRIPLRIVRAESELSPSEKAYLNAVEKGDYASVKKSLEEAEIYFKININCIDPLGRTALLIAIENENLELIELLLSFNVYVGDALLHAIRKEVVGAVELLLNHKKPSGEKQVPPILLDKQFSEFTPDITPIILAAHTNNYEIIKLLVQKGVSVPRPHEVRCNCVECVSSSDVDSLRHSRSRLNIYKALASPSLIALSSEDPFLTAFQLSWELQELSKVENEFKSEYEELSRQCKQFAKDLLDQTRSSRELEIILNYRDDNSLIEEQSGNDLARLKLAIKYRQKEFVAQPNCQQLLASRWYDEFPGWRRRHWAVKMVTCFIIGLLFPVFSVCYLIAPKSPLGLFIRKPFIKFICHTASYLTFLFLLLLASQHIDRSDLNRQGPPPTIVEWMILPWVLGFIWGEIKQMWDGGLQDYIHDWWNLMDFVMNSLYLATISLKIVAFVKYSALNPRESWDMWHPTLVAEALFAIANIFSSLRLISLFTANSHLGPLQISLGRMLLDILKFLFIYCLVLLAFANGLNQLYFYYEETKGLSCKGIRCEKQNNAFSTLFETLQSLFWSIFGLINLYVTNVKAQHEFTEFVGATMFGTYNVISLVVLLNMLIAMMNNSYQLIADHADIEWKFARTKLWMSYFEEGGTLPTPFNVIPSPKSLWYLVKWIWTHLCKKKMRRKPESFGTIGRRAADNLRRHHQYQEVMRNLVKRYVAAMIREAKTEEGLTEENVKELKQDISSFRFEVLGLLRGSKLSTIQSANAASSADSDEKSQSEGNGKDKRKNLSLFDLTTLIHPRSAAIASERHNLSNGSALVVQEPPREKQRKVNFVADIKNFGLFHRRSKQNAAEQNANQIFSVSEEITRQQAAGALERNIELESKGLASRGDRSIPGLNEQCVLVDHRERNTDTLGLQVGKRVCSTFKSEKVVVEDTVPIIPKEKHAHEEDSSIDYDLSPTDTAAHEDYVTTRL
As to the kind of experiment: mouse TRPC4 channel activators, dose response, cell-based, HEK293 TRPC4/mu-opioid, Fluo-4 calcium (AID 434937).

The target of assay [3] is T3, Mitochondrial peptide methionine sulfoxide reductase (Bos taurus, UniProt P54149).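 Further: absorbance read-out, biochemical high-throughput dose-response screen for MsrA inhibitors, confirmatory; recombinant bovine MsrA coupled to E. coli TrxB with NADPH and selenocystamine; potency is for inhibitors of MsrA activity on DMSO substrate.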
T3 sequence (P54149 whole entry): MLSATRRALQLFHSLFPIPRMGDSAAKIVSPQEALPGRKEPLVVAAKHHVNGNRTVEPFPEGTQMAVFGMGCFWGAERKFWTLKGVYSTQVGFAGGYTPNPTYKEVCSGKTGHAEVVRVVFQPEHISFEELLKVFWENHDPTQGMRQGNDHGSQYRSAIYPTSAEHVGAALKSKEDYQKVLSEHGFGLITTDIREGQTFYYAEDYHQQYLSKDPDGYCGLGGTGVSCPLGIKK

The target in assay [4] is Testis-specific serine/threonine-protein kinase 2 (Homo sapiens, UniProt Q96PF2).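 Further: part of the Navigating the Kinome panel, target entry STK22B.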
Testis-specific serine/threonine-protein kinase 2, sequence (Q96PF2 whole entry): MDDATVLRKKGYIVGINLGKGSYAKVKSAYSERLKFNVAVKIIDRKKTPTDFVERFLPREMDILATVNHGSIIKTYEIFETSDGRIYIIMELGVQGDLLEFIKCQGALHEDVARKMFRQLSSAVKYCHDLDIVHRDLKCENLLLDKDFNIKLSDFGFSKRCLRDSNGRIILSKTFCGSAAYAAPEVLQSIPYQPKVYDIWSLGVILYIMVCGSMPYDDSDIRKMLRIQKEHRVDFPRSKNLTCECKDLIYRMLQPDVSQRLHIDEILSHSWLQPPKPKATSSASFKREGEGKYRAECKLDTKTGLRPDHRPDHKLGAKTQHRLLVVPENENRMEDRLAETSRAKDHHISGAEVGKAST
The target of assay [5] is Death-associated protein kinase 3 (Homo sapiens, UniProt O43293).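 Further: measured as one member of a kinome-wide profiling panel.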
Death-associated protein kinase 3, sequence (O43293 whole entry): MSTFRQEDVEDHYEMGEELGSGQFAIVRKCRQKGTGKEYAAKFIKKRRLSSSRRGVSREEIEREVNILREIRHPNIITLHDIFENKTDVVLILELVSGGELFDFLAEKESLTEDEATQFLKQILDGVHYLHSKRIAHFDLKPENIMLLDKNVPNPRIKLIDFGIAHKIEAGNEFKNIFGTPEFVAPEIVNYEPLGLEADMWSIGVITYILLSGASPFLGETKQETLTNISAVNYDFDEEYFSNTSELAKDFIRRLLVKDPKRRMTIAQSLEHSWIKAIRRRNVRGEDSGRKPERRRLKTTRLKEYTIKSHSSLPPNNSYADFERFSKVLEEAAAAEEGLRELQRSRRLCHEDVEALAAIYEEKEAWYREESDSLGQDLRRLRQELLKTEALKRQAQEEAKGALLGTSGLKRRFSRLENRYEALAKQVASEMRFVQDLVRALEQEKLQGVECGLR
The target in assay [6] is Cyclin-dependent kinase 2 (Homo sapiens, UniProt P24941).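 Further: CDK2 measured as one member of a broad kinome profiling panel.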
Assay [7] concerns the target Casein kinase I isoform alpha (Homo sapiens, UniProt P48729).
Assay [8] concerns the target Protein kinase C gamma type (Homo sapiens, UniProt P05129).
Assay [9] concerns the target Vascular endothelial growth factor receptor 2 (Homo sapiens, UniProt P35968).
Assay [10] concerns the target Serine/threonine-protein kinase Nek4 (Homo sapiens, UniProt P51957).
A further assay addresses Aurora kinase B (Homo sapiens, UniProt Q96GD4).
In assay [11] the target is Rho-associated protein kinase 1 (Homo sapiens, UniProt Q13464).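 Further: measured within a broad kinome-wide panel profiling many kinases.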
Rho-associated protein kinase 1, sequence (Q13464 whole entry): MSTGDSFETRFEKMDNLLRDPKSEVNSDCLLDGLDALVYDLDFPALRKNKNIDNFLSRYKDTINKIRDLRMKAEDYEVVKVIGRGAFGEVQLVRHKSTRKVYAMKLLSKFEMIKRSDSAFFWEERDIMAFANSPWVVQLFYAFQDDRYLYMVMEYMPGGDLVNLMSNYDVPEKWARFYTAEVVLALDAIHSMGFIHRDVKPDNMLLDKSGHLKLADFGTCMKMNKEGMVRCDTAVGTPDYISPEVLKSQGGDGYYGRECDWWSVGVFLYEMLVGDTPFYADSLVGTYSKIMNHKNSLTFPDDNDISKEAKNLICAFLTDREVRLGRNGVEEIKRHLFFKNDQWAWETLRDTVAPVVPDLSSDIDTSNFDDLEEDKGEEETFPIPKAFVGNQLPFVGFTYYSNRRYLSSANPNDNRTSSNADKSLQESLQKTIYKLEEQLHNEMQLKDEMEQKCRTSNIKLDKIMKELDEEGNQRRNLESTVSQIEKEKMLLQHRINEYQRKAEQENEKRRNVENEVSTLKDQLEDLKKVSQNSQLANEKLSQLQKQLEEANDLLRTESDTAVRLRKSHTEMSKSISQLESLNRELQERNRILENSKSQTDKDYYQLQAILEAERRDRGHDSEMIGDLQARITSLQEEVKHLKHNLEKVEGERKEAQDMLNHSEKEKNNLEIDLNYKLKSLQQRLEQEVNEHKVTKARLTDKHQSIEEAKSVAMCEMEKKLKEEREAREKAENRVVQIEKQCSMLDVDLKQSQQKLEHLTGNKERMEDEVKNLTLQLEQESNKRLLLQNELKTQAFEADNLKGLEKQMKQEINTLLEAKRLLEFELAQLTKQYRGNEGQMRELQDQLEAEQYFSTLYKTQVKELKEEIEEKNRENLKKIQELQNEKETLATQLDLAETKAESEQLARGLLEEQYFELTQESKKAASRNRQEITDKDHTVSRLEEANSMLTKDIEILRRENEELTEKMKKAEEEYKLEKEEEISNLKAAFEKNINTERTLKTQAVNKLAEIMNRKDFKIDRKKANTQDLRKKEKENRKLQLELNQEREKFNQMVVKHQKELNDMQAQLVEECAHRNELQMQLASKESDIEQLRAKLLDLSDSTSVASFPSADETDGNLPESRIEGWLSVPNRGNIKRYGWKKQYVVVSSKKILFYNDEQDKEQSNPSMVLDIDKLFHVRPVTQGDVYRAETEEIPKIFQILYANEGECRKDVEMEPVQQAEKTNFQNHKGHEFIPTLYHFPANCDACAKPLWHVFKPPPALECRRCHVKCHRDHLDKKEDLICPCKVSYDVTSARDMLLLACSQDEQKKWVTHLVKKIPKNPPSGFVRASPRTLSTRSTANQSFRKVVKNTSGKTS
The target in assay [12] is cAMP-dependent protein kinase catalytic subunit alpha (Homo sapiens, UniProt P17612).
Assay [13] concerns the target Lymphokine-activated killer T-cell-originated protein kinase (Homo sapiens, UniProt Q96KB5).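 Further: value comes from a kinase panel screen in which TOPK was one of the panel members.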

The source made the active and inactive calls. Bounds are passed on as bounds.

Aurora kinase B, sequence (Q96GD4 whole entry): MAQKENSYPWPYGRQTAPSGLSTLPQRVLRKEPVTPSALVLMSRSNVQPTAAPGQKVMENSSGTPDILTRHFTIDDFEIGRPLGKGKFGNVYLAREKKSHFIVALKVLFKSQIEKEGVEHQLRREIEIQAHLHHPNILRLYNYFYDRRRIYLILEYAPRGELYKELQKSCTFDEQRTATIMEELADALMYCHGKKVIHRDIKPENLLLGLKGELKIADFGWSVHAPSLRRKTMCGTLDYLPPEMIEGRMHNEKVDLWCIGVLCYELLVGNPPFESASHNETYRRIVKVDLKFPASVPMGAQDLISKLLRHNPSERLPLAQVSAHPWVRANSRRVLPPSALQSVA
Casein kinase I isoform alpha, sequence (P48729 whole entry, canonical isoform): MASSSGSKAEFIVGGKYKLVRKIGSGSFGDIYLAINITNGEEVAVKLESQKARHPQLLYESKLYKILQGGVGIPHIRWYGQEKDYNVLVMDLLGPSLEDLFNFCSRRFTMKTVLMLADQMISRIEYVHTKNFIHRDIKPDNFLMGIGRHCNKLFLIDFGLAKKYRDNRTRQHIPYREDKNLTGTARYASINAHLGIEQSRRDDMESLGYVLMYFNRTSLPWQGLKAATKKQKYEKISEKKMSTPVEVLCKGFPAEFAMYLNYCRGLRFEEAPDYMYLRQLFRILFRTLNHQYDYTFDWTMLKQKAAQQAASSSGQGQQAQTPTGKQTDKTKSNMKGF
Serine/threonine-protein kinase Nek4, sequence (P51957 whole entry): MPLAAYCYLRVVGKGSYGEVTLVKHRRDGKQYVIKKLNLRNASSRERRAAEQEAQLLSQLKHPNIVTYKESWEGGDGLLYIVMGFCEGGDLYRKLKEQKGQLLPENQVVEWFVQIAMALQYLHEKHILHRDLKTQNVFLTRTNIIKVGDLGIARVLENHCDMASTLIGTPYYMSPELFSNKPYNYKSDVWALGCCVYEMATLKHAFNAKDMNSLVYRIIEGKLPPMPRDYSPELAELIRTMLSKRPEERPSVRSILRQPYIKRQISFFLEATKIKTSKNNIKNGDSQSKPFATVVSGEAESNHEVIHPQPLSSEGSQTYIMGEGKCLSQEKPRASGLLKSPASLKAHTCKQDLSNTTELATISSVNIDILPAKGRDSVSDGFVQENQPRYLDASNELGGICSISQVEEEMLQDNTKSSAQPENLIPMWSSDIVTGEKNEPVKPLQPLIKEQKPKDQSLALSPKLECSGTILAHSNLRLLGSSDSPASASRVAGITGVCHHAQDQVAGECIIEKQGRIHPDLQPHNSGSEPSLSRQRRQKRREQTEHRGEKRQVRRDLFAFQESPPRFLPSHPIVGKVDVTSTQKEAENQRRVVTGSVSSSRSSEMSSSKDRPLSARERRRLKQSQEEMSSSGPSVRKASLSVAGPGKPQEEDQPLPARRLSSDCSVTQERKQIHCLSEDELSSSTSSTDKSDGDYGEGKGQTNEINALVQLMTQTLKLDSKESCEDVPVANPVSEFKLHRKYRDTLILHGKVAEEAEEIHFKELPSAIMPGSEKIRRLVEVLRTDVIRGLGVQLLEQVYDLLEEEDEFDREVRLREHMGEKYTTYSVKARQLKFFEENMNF
Lymphokine-activated killer T-cell-originated protein kinase, sequence (Q96KB5 whole entry): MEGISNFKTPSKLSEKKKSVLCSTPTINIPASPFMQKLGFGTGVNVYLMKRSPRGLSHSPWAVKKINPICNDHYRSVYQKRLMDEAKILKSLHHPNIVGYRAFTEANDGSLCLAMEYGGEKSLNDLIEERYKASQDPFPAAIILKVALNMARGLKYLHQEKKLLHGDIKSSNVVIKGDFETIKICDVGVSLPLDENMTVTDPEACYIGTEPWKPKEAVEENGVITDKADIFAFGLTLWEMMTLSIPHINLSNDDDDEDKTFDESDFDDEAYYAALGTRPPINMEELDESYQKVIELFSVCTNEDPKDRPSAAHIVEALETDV

A word on the IC50: it is the concentration that gives 50% inhibition. In the case of `Cc1ccc(C(=O)NC2(O)C(=O)c3ccccc3C2=O)cc1C`, in assay [1], the IC50 was 3.48 µM (active).

As a reminder, the EC50 is the concentration that produces a half-maximal response. As for `CC[C@@H](C)[C@H](CNC)NC[C@@H](Cc1cccc2ccccc12)NCCc1cccc(C(F)(F)F)c1`, the EC50 in [2] is 9.44 µM (active).

In the case of `Cc1ccc(S(=O)(=O)/N=C2\C=C(Nc3cccc(C(=O)O)c3)C(=O)c3ccccc32)cc1`, the IC50 in assay [3] is 42.4 µM (inactive).

By Ki is commonly meant the dissociation constant of the complex between target and ligand, obtained from inhibition or displacement. As to `CC(C)(CO)CNc1nccc(-c2c(-c3ccc(F)cc3)nc3c(CC4CC4)nccn23)n1`, the Ki in [4] is > 1.58 µM (inactive); in assay [5], > 1.26 µM (inactive); in [6], > 7.94 µM (inactive); in assay [7], 1.26 µM (active); in assay [8], > 7.94 µM (inactive); in [9], > 7.94 µM (inactive). Besides, the Ki in assay [10] was > 6.31 µM (inactive); at Aurora kinase B, > 6.31 µM (inactive); in assay [11] it was > 10 µM (inactive); in assay [12] it was > 7.94 µM (inactive); in [13], 0.316 µM (active).

These data come from ChEMBL document CHEMBL1201862, “PubChem BioAssay data set” (2004).
